Earlier results as cited in article PMC5117885 (Drug Design, Development and Therapy, 2016).

Key:
[1] = phase 3 ACCELERATE trial
[2] = not given; remark: listed apart in the source

Cc1cc(C)c2c(c1)[C@@H](N(Cc1cc(C(F)(F)F)cc(C(F)(F)F)c1)c1nnn(C)n1)CCCN2C[C@H]1CC[C@H](C(=O)O)CC1 [Evacetrapib]
Efficacy [1]: did not improve the efficacy

CCC(CC)CC1(C(=O)Nc2ccccc2SC(=O)C(C)C)CCCCC1 [Dalcetrapib]
Effect on HDL-C levels: increased HDL-C levels | Reduction of cardiovascular events compared to placebo group: did not demonstrate a significant reduction of cardiovascular events

CCOC(=O)N1c2ccc(C(F)(F)F)cc2[C@@H](N(Cc2cc(C(F)(F)F)cc(C(F)(F)F)c2)C(=O)OC)C[C@H]1CC [Torcetrapib]
Effect on blood pressure and aldosterone [2]: Elevation of BP caused by torcetrapib was associated with a substantial increase of aldosterone | Effect on HDL-C and LDL-C ([2]; ILLUMINATE trial): HDL-C increase and LDL-C decrease | Risk of death and cardiac events ([2]; ILLUMINATE trial, patients receiving torcetrapib): significantly increased risk of death and cardiac events
